{
  "source": "patent US5804410A",
  "about": "“Nucleic acid sequence encoding trypsin-like enzyme and process for producing the enzyme” (Teijin Limited, priority 1994, dated 1998)",
  "key": {"trypsin-like enzyme": {"molecular_target": "T1, trypsin-like enzyme (Homo sapiens, UniProt O60235)", "T1 construct": "from tissue; host or cells: cough phlegm (sputum) of patients with chronic disease of the respiratory tract", "T1 sequence (O60235 187-418)": "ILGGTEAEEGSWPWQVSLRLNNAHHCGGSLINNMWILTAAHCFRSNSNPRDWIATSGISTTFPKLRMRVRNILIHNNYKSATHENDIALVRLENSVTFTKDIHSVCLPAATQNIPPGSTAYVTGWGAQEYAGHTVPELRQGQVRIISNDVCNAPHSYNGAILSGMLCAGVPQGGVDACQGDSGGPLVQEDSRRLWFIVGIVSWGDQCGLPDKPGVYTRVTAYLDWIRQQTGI", "test": "Substrate specificity, synthetic MCA substrates (assay method of trypsin activity)", "format": "biochemical", "conditions": "synthetic substrates, pH 8.6"}, "[1]": {"test": "Measurement of optimum pH of trypsin-like enzyme", "format": "biochemical", "conditions": "at pH 6.0, relative to the enzyme at pH 7.6", "method": "50 μl of the solution of the trypsin-like protease obtained in Example 1 was added to 1.5 ml of 0.1M Tris-HCl buffer (pH 8.6) containing 100 μM of a synthetic substrate for trypsin Boc-Phe-Ser-Arg-MCA (MCA=methylcoumarinamide), and the mixture was subjected to incubation at 37° C. for 1 hour. 1 ml of 30% acetic acid was then added, the amount of 7-amino-4-methylcoumarin (AMC) formed was determined by fluorescent assay (fluorescence 440 nm, excitating light 380 nm), and the activity of the enzyme was calculated based thereon. An activity of forming 1 pM of AMC in 1 minute is defined as 1 unit (1 unit=1 pM AMC/min).\nThe following buffers were prepared for ascertaining trypsin activity at various pH values.\nThe activity of the trypsin-like enzyme obtained in Example 1 in each buffer was assayed according to the method described in Example 2, and the results are shown in FIG. 2."}, "fibrinogen": {"test_system": "fibrinogen", "test": "Influence of trypsin-like enzyme on thrombin-induced coagulation time of fibrinogen", "format": "biochemical", "conditions": "fibrinogen 2 mg/ml, 37° C., thrombin 2.5 units/ml; in proportion as the added activity unit increases; FIG. 3", "method": "Fibrinogen was dissolved in 0.01M Tris-HCl buffer (pH 7.4), 0.01M CaCl2 0.15M NaCl so that its concentration could be 2 mg/ml, the trypsin-like enzyme obtained in Example 1 was added with its activity unit changed, the mixture was heated to 37° C., 0.1 ml of this reaction solution was mixed with 0.1 ml of a thrombin solution (2.5 units/ml), and coagulation time was measured on the mixture. In proportion as the added activity unit of the trypsin-like enzyme increases, coagulation time was prolonged."}, "influenza viruses": {"test_system": "influenza viruses", "conditions": "in contrast to trypsin; cited from earlier work"}, "NDV Miyadera strain": {"test_system": "NDV Miyadera strain", "conditions": "cited from earlier work"}, "VSV New Jersey strain": {"test_system": "VSV New Jersey strain", "conditions": "cited from earlier work"}},
  "data": [
    {"substance": "trypsin-like enzyme: protease isolated from cough phlegm of patients with chronic respiratory tract disease, amino acid sequence [I] (SEQ ID NO:19)", "values": [
      {"measurement": "chymotrypsin activity, elastase activity, collagenase activity, leucine aminopeptidase activity of the enzyme", "setting": "trypsin-like enzyme", "value": "did not exhibit"},
      {"measurement": "Inactivation by pH", "setting": "[1]", "value": "about 80%"},
      {"measurement": "coagulation time", "setting": "fibrinogen", "value": "prolonged"},
      {"measurement": "action of inactivating influenza viruses", "setting": "influenza viruses", "value": "inactivating"},
      {"measurement": "action of inactivating NDV Miyadera strain", "setting": "NDV Miyadera strain", "value": "inactivating"},
      {"measurement": "action of inactivating VSV New Jersey strain", "setting": "VSV New Jersey strain", "value": "inactivating"}
    ]}
  ]
}
